Assays:
[1] = system: hematopoietic progenitors (CFU-GM); test: Stem cell mobilisation, mice model (CFU-GM); format: in vivo, mouse
Description: The aim of the study was to evaluate the ability of the compound of Example 1 and Example 2 to mobilize hematopoietic progenitors from mouse bone marrow to peripheral blood using in-vitro hematopoietic colony assays. In humans, accurate information about progenitor cell mobilization is provided by the colony forming unit granulocyte-monocyte (CFU-GM) assay or by determining the abundance of CD34(+) cells by FACS analysis (see ref. 10 below). In mice, CD34 is not a useful marker for stem cells; instead the CFU-GM is more commonly used (see ref. 11 below).
In order to assess the ability of the compounds of Example 1 and Example 2 to mobilize murine stem cells (CFU-GM) C3H/HeJ female mice (Jackson Laboratory) were injected s.c. with 5 mg/k, of the compounds of Example 1 and of Example 2 and as reference AMD3100 (Broxmeyer, et al, J Exp Med 201, 1307-1318), (currently undergoing Phase III clinical trials) for stem cell mobilisation. Peripheral blood samples from 5 animals per test group were collected at each time point and nucleated cell counts performed as standard assays.

[2] = Plasma stability, rat plasma; format: in vitro ADME; details: read-out: Stability rat Plasma t1/2
[3] = system: human red blood cells (hRBC); test: Hemolysis; format: cell-based; details: 100 μM peptide, 20% v/v hRBC, 1 hour at 37° C.; percent hemolysis per method
Method: The peptides were tested for their hemolytic activity against human red blood cells (hRBC). Fresh hRBC were washed three times with phosphate buffered saline (PBS) by centrifugation for 10 min at 2000×g. Peptides at a concentration of 100 μM were incubated with 20% v/v hRBC for 1 hour at 37° C. The final erythrocyte concentration was approximately 0.9×10^9 cells per ml. A value of 0% resp. 100% cell lysis was determined by incubation of the hRBC in the presence of PBS alone and respectively 0.1% Triton X-100 in H2O. The samples were centrifuged and the supernatant was 20-fold diluted in PBS buffer and the optical density (OD) of the sample at […] was measured. The 100% lyses value (OD540H2O) gave an OD540 of approximately 1.3-1.8. Percent hemolysis was calculated as follows: (OD540peptide/OD540H2O)×100%.

[4] = system: CD34(+) hematopoietic cells; test: Stem cell mobilisation, monkey model (CD34(+) cells by FACS); format: in vivo, cynomolgus monkeys (Macaca fascicularis); details: cynomolgus monkeys, slow bolus i.v. injection
Method: An assessment of mobilization of peripheral-blood hematopoietic stem cells in cynomolgus monkeys (Macaca fascicularis) was performed. The compound of Example 1 was administered to 4 monkeys (2 male and 2 female) as a slow bolus i.v. injection over 2 minutes and CD34(+) cells were determined by FACS analysis. Toxicokinetic blood sampling was also performed.

[5] = Maximum tolerated dose in mice; format: in vivo, mouse; details: mouse, i.v.
Method: 3.1. Maximum Tolerated Dose in Mice
a) The compound of Example 1, dispersed in Water for Injection or 0.9% physiological saline), was administered, in the preliminary study, by i.v. injection at dose levels of 35, 50, 70, 85, 100, 150, 250 or 500 mg/kg to groups consisting of one male and one female mouse (Crl:CD1(ICR)). In addition, two groups comprising two male and two female mice received dose levels of 90 and 100 mg/kg, respectively, and the 50 mg/kg dose level was repeated in a group comprising one male and one female.
b) Maximum tolerated dose studies (MTD) carried out with the compound of Example 2 using CD1 mice (3 mice/group) and was performed using i.v, ip and sc. administration.

[6] = Cytotoxicity assay (MTT reduction); format: cell-based; details: human, HELA cells (Acc57), peptides at 12.5, 25 and 50 μM, trend line, read-out: Cyto-toxicity LC50/GI50 Hela cells
Method: The cytotoxicity of the peptides to HELA cells (Acc57) and COS-7 cells (CRL-1651) was determined using the MTT reduction assay [see ref. 6 and 7, below]. Briefly the method was as follows: HELA cells and COS-7 cells were seeded at 7.0×10^3 and, respectively, 4.5×10^3 cells per well and grown in 96-well microtiter plates for 24 hours at 37° C. at 5% CO2. At this point, time zero (Tz) was determined by MTT reduction (see below). The supernatant of the remaining wells was discarded, and fresh medium and the peptides in serial dilutions of 12.5, 25 and 50 μM were pipetted into the wells. Each peptide concentration was assayed in triplicate. Incubation of the cells was continued for 48 hours at 37° C. at 5% CO2. Wells were then washed once with PBS and subsequently 100 μl MTT reagent (0.5 mg/mL in medium RPMI1640 and, respectively, DMEM) was added to the wells. This was incubated at 37° C. for 2 hours and subsequently the medium was aspirated and 100 μl isopropanol was added to each well. The absorbance at 595 nm of the solubilized product was measured (OD595peptide). For each concentration averages were calculated from triplicates. The percentage of growth was calculated as follows: (OD595peptide−OD595Tz−OD595Empty well)/(OD595Tz−OD595Empty well)×100% and was plotted for each peptide concentration. […]

[7] = 14-day intravenous injection toxicity and toxicokinetic study in mice; format: in vivo, mouse
Method: 3.2 Repeated Toxicity Studies in Mice
The toxicity and toxicokinetics of the compound of Example 1 was investigated following daily i.v. injection in the mouse for at least 14 days. Groups of 12 male and 12 female Crl:CD1(ICR) mice received dose preparations containing control article (50 mM sodium dihydrogen orthophosphate buffer containing 0.9% w/v sodium chloride) or 8, 24, or 40 mg/kg/day POL6326 at a dose volume of 5 mL/kg. Satellite groups of 24 animals per sex per group were included at each dose level. Assessment of toxicity was based on mortality, clinical signs, body weights, food consumption, ophthalmic examinations, clinical and anatomic pathology, and toxicokinetic evaluations.

[8] = Plasma stability, human plasma; format: in vitro ADME; details: read-out: Stability human Plasma t1/2
human CXCR4 = biological target: T1, human CXCR4 (Homo sapiens, UniProt P61073); test: Ca2+ assay: CXCR4-antagonizing activity; format: cell-based
T1 construct: expressed in transfected cells; host or cells: mouse pre-B cell line 300-19
T1 sequence (P61073 whole entry): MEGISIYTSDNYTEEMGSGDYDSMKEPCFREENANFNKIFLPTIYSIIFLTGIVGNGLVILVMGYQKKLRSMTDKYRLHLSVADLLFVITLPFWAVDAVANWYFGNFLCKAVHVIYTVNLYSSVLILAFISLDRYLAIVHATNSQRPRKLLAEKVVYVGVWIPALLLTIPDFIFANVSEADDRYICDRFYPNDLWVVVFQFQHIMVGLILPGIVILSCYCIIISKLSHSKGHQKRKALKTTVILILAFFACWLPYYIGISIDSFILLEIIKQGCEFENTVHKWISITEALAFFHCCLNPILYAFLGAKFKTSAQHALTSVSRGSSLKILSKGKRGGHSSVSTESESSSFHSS
Method: 2.2. Ca^2+− Assay: CXCR4-Antagonizing Activity of the Peptides.
Increases in intracellular calcium were monitored using a Flexstation 384 (Molecular Devices, Sunnyvale, Calif.) to assay the peptides for CXCR4 antagonism in a mouse pre-B cell line 300-19 stably transfected with human CXCR4 [see references 1, 2 and 3, below]. The cells were batch loaded with the Calcium 3 Assay kit (Molecular Devices) in assay buffer (Hanks Balanced salt solution, HBSS, 20 mM HEPES, pH 7.4, 0.1% BSA) for 1 h at room temperature and then 200,000 labeled cells were dispensed into black 96 well assays plates (Costar No. 3603). A 20-fold concentrated solution of peptide in assay buffer was added to the cells and the whole plate was centrifuged to settle the cells to the bottom of the wells. Calcium mobilization induced by 10 nM stromal-derived factor-1 (SDF-1) was measured in the Flexstation 384 (excitation, 485 […]) for 90 seconds. A maximal change in fluorescence response above baseline was used to calculate antagonist activity. The data for dose response curves (antagonist concentration versus % maximum response) were fitted to a four parameter logistic equation using SoftmaxPro 4.6 (Molecular Devices), from which IC50% values were calculated.

[9] = mouse, 8, 24 or 40 mg/kg/day i.v.

Structure (SMILES) | effect on CFU-GM blood cell numbers / progenitors over time ([1]; C3H/HeJ mice, 5 mg/kg s.c., compared to control mice) | return of CFU-GM to baseline levels, time post administration ([1]; C3H/HeJ mice, 5 mg/kg s.c.) | time of maximal effect on CFU-GM blood cell numbers ([1]; C3H/HeJ mice, 5 mg/kg s.c.) | dose of peak level increase in release of CFU-GM (dose response) ([1]; mice, follow up dose response study) | half-life at 10 µM [2] | Hemo-lysis at 100 μM [3] | duration of mobilisation [4] | mobilization of CD34(+) hematopoietic cells [4] | time of peak level of mobilization [4] | acute minimum lethal intravenous dose level [5] | CC50 at 48 h [6] | NOAEL at 14 days ([7]; both sexes, Crl:CD1(ICR), in vivo, iv, mouse, daily i.v. dosing, 14 days, read-out: NOAEL level) | white blood cell and absolute lymphocyte counts ([7]; females given 40 mg/kg/day) | clinical chemistry results [7, 9] | effect on body weight, body weight change, food consumption, ophthalmic observations [7, 9] | test article-related gross lesions [7, 9] | test article-related microscopic lesions [7, 9] | half-life at 10 µM [8] | IC50 (human CXCR4)
c1cc(CN2CCCNCCNCCCNCC2)ccc1CN1CCCNCCNCCCNCC1 [AMD3100, reference compound] | increase in the frequency and number of progenitors at 30 and 60 minutes |  |  |  |  |  |  |  |  |  |  |  |  |  |  |  |  |  | 
C[C@@H]1NC(=O)[C@H](Cc2c[nH]cn2)NC(=O)[C@H](Cc2ccc(O)cc2)NC(=O)[C@@H]2CCCN2C(=O)[C@H]2CCCN2C(=O)[C@H](CCCCN)NC(=O)[C@H](CCC(N)=O)NC(=O)[C@H](Cc2ccc(O)cc2)NC(=O)[C@@H]2CSSC[C@H](NC1=O)C(=O)N[C@@H](CO)C(=O)N[C@@H](C)C(=O)N1CCC[C@@H]1C(=O)N[C@@H](CCN)C(=O)N[C@@H](CCCNC(=N)N)C(=O)N[C@@H](Cc1ccc(O)cc1)C(=O)N2 [Example 1] |  | 6 h | 120 min | 5 mg/kg | > 4 h | 0.6 | transient | induced mobilization of CD34(+) hematopoietic cells | peak level at two hours | exceed 90 mg/kg | > 50000 nM | 40 mg/kg/day | mildly higher | unaffected | no notable effect | No test article-related gross lesions were recorded | No test article-related microscopic lesions were observed | > 4 h | 5.5 nM
